Results taken from publication PMC8222254, “Self-assembly of an anion receptor with metal-dependent kinase inhibition and potent in vitro anti-cancer properties” (Nature Communications, 2021).
Several values for one entry are separate records, joined by “and”; a condition that tells them apart may be missing. Identical values can stand only once. Like-named read-outs stand apart in the source and are kept apart here.

What was measured:
Test in all cases: Chemosensitivity, 96 h continuous exposure, MTT assay
Format in all cases: cell-based, human
HT-29 = details: for Selectivity index (ARPE19): IC50 ARPE-19 / IC50 HT29; for Selectivity index (MCF10A): IC50 MCF10A / IC50 HT29; for Relative potency (+ anion to no anion), Ratio + anion:no anion: ratio of IC50, HT29; for Selectivity indices relative to ARPE-19, Ratio + anion:no anion: ratio of SI (ARPE-19); for Selectivity indices relative to MCF10A, Ratio + anion:no anion: ratio of SI (MCF 10A)
How it was run: (§1)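 Growth inhibition is measured by MTT after cells are dosed for 96 h without washout. The 50% growth-reduction concentration is then interpolated from the curves.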

PSN1 = details: for Selectivity index (ARPE19): IC50 ARPE-19 / IC50 PSN1; for Selectivity index (MCF10A): IC50 MCF10A / IC50 PSN1; for IC50 / Selectivity indices relative to ARPE-19, Ratio + anion:no anion / Selectivity indices relative to MCF10A, Ratio + anion:no anion: PSN1; for Relative potency (+ anion to no anion), Ratio + anion:no anion: ratio of IC50, PSN1; for Selectivity indices relative to ARPE-19, Ratio + anion:no anion: ratio of SI (ARPE-19); for Selectivity indices relative to MCF10A, Ratio + anion:no anion: ratio of SI (MCF 10A)
How it was run: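 IC50 is the concentration giving 50% growth reduction, derived from dose-response curves of MTT absorbance at 540 nm. Before dosing, lines were plated at 2 × 10^3 cells/well, GBM1 stem-like cells at 3 × 10^3/well, overnight at 37 °C; compound exposure lasted 96 h without interruption, vehicle 0.2% DMSO.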

ARPE-19 non-cancer cells = details: for Relative potency (+ anion to no anion), Ratio + anion:no anion: ratio of IC50, ARPE-19
How it was run: as §1

BxPC3 = details: for IC50 / Selectivity indices relative to ARPE-19, Ratio + anion:no anion / Selectivity indices relative to MCF10A, Ratio + anion:no anion: BXPC3; for Selectivity index (ARPE19): IC50 ARPE-19 / IC50 BXPC3; for Selectivity index (MCF10A): IC50 MCF10A / IC50 BXPC3; for Relative potency (+ anion to no anion), Ratio + anion:no anion: ratio of IC50, BXPC3; for Selectivity indices relative to ARPE-19, Ratio + anion:no anion: ratio of SI (ARPE-19); for Selectivity indices relative to MCF10A, Ratio + anion:no anion: ratio of SI (MCF 10A)
How it was run: as §1

MCF10A non-cancer cells = details: for Relative potency (+ anion to no anion), Ratio + anion:no anion: ratio of IC50, MCF10A
How it was run: as §1

A549 = details: for IC50 / Selectivity indices relative to ARPE-19, Ratio + anion:no anion / Selectivity indices relative to MCF10A, Ratio + anion:no anion: A549; for Selectivity index (ARPE19): IC50 ARPE-19 / IC50 A549; for Selectivity index (MCF10A): IC50 MCF10A / IC50 A549; for Relative potency (+ anion to no anion), Ratio + anion:no anion: ratio of IC50, A549; for Selectivity indices relative to ARPE-19, Ratio + anion:no anion: ratio of SI (ARPE-19); for Selectivity indices relative to MCF10A, Ratio + anion:no anion: ratio of SI (MCF 10A)
How it was run: as §1

DLD-1 = details: for IC50 / Selectivity indices relative to ARPE-19, Ratio + anion:no anion / Selectivity indices relative to MCF10A, Ratio + anion:no anion: DLD-1; for Selectivity index (ARPE19): IC50 ARPE-19 / IC50 DLD-1; for Selectivity index (MCF10A): IC50 MCF10A / IC50 DLD-1; for Relative potency (+ anion to no anion), Ratio + anion:no anion: ratio of IC50, DLD-1; for Selectivity indices relative to ARPE-19, Ratio + anion:no anion: ratio of SI (ARPE-19); for Selectivity indices relative to MCF10A, Ratio + anion:no anion: ratio of SI (MCF 10A)
How it was run: as §1

[1] = HT29, mean of replicates, read-out: Mean IC50
[2] = HT29, read-out: Mean IC50 values
[3] = HT-29, single replicate, read-out: IC50 values for each replicate
[4] = mean of replicates, read-out: Mean IC50
[5] = single replicate, read-out: IC50 values for each replicate
[6] = ARPE-19, mean of replicates, read-out: Mean IC50
[7] = ARPE-19, single replicate, read-out: IC50 values for each replicate
[8] = ARPE-19 non-cancer, read-out: Mean IC50 values
[9] = MCF10A non-cancer, read-out: Mean IC50 values
[10] = MCF10A, mean of replicates, read-out: Mean IC50
[11] = MCF10A, single replicate, read-out: IC50 values for each replicate

For `O=P(O)(O)Oc1ccccc1.[Zn+2].[Zn+2].[Zn+2].c1ccc(-c2csc(NCCN(CCNc3nc(-c4ccccn4)cs3)CCNc3nc(-c4ccccn4)cs3)n2)nc1.c1ccc(-c2csc(NCCN(CCNc3nc(-c4ccccn4)cs3)CCNc3nc(-c4ccccn4)cs3)n2)nc1` [[L2Zn3(O3POPh)]4+], the IC50 (HT-29; [1]) was 0.379 µM, the IC50 (HT-29; [2]) was 0.379 µM and the IC50 (HT-29; [3]) was 0.733 µM and 0.271 µM and 0.247 µM and 0.265 µM. The “Selectivity index (ARPE19)” value (HT-29) was 607.52, the “Selectivity index (MCF10A)” value (HT-29) was 138.13 and the “Relative potency (+ anion to no anion), Ratio + anion:no anion” value (“Relative potency … Ratio + anion:no anion” below) (HT-29) was 2.24. For the same molecule, the “Selectivity indices relative to ARPE-19, Ratio + anion:no anion” value (HT-29; HT29) was 0.653, the “Selectivity indices relative to MCF10A, Ratio + anion:no anion” value (HT-29; HT29) was 0.144 and the “Selectivity index (ARPE19)” value (PSN1) was 1338.66. For the same molecule, the “Selectivity index (MCF10A)” value (PSN1) was 304.38, the IC50 (PSN1; [4]) was 0.172 µM and the IC50 (PSN1; read-out: Mean IC50 values) was 0.172 µM. The IC50 (PSN1; [5]) was 0.09 µM and 0.171 µM and 0.256 µM, the “activity relative to [L2Zn3(PO4)]3+ or [L2Zn3]6+” value (PSN1; PSN1 cell line, anion pre-encapsulated) was “significantly more active” and the “Relative potency … Ratio + anion:no anion” value (PSN1) was 0.04. The “Selectivity indices relative to ARPE-19, Ratio + anion:no anion” value (PSN1) was 37.826, the “Selectivity indices relative to MCF10A, Ratio + anion:no anion” value (PSN1) was 8.367 and the IC50 (ARPE-19 non-cancer cells; [6]) was 230 µM. The IC50 (ARPE-19 non-cancer cells; [7]) was 273 µM and 210 µM and 208 µM, the IC50 (ARPE-19 non-cancer cells; [8]) was 230 µM and the “Relative potency … Ratio + anion:no anion” value (ARPE-19 non-cancer cells) was 1.46. The IC50 (BxPC3; [4]) was 1.14 µM, the IC50 (BxPC3; read-out: Mean IC50 values) was 1.14 µM and the “Selectivity index (ARPE19)” value (BxPC3) was 202.86. For the same molecule, the “Selectivity index (MCF10A)” value (BxPC3) was 46.13, the “Relative potency … Ratio + anion:no anion” value (BxPC3) was 3.55 and the “Selectivity indices relative to ARPE-19, Ratio + anion:no anion” value (BxPC3) was 0.413. The “Selectivity indices relative to MCF10A, Ratio + anion:no anion” value (BxPC3) was 0.091, the IC50 (MCF10A non-cancer cells; [9]) was 52.4 µM and the IC50 (MCF10A non-cancer cells; [10]) was 52.4 µM. For the same molecule, the IC50 (MCF10A non-cancer cells; [11]) was 37.9 µM and 56.1 µM and 63.1 µM, the “Relative potency … Ratio + anion:no anion” value (MCF10A non-cancer cells) was 0.32 and the IC50 (A549; [4]) was 0.739 µM. The IC50 (A549; read-out: Mean IC50 values) was 0.739 µM, the IC50 (A549; [5]) was 0.651 µM and 0.791 µM and 0.774 µM and the “Selectivity index (ARPE19)” value (A549) was 311.57. For the same molecule, the “Selectivity index (MCF10A)” value (A549) was 70.84, the “Relative potency … Ratio + anion:no anion” value (A549) was 1.83 and the “Selectivity indices relative to ARPE-19, Ratio + anion:no anion” value (A549) was 0.798. For the same molecule, the “Selectivity indices relative to MCF10A, Ratio + anion:no anion” value (A549) was 0.177, the IC50 (DLD-1; [4]) was 0.23 µM and the IC50 (DLD-1; read-out: Mean IC50 values) was 0.23 µM. For the same molecule, the “Selectivity index (ARPE19)” value (DLD-1) was 1001.09, the “Selectivity index (MCF10A)” value (DLD-1) was 227.62 and the “Relative potency … Ratio + anion:no anion” value (DLD-1) was 1.35. The “Selectivity indices relative to ARPE-19, Ratio + anion:no anion” value (DLD-1) was 1.082 and the “Selectivity indices relative to MCF10A, Ratio + anion:no anion” value (DLD-1) was 0.239.

With `CC(=O)[O-].CC(=O)[O-].CC(=O)[O-].O=P([O-])([O-])[O-].[Zn+2].[Zn+2].[Zn+2].c1ccc(-c2csc(NCCN(CCNc3nc(-c4ccccn4)cs3)CCNc3nc(-c4ccccn4)cs3)n2)nc1.c1ccc(-c2csc(NCCN(CCNc3nc(-c4ccccn4)cs3)CCNc3nc(-c4ccccn4)cs3)n2)nc1` [[L2Zn3(PO4)]3+] the IC50 (HT-29; [1]) was 0.214 µM, the IC50 (HT-29; [2]) was 0.214 µM and the IC50 (HT-29; [3]) was 0.091 µM and 0.254 µM and 0.236 µM and 0.228 µM and 0.262 µM. The “Selectivity index (ARPE19)” value (HT-29) was 612.01, the “Selectivity index (MCF10A)” value (HT-29) was 67.40 and the “Relative potency … Ratio + anion:no anion” value (HT-29) was 1.27. The “Selectivity indices relative to ARPE-19, Ratio + anion:no anion” value (HT-29; HT29) was 0.658, the “Selectivity indices relative to MCF10A, Ratio + anion:no anion” value (HT-29; HT29) was 0.070 and the “Selectivity index (ARPE19)” value (PSN1) was 19.60. The “Selectivity index (MCF10A)” value (PSN1) was 2.16, the IC50 (PSN1; [4]) was 6.68 µM and the IC50 (PSN1; read-out: Mean IC50 values) was 6.68 µM. For the same molecule, the IC50 (PSN1; [5]) was 6.73 µM and 6.48 µM and 6.84 µM, the “Relative potency … Ratio + anion:no anion” value (PSN1) was 1.50 and the “Selectivity indices relative to ARPE-19, Ratio + anion:no anion” value (PSN1) was 0.554. The “Selectivity indices relative to MCF10A, Ratio + anion:no anion” value (PSN1) was 0.059, the IC50 (ARPE-19 non-cancer cells; [6]) was 131 µM and the IC50 (ARPE-19 non-cancer cells; [7]) was 121 µM and 118 µM and 154 µM. For the same molecule, the IC50 (ARPE-19 non-cancer cells; [8]) was 131 µM, the “Relative potency … Ratio + anion:no anion” value (ARPE-19 non-cancer cells) was 0.83 and the IC50 (BxPC3; [4]) was 0.728 µM. For the same molecule, the IC50 (BxPC3; read-out: Mean IC50 values) was 0.728 µM, the IC50 (BxPC3; [5]) was 0.812 µM and 0.698 µM and 0.618 µM and 0.766 µM and the “Selectivity index (ARPE19)” value (BxPC3) was 179.90. For the same molecule, the “Selectivity index (MCF10A)” value (BxPC3) was 19.81, the “Relative potency … Ratio + anion:no anion” value (BxPC3) was 2.28 and the “Selectivity indices relative to ARPE-19, Ratio + anion:no anion” value (BxPC3) was 0.366. The “Selectivity indices relative to MCF10A, Ratio + anion:no anion” value (BxPC3) was 0.039, the IC50 (MCF10A non-cancer cells; [9]) was 14.4 µM and the IC50 (MCF10A non-cancer cells; [10]) was 14.4 µM. The IC50 (MCF10A non-cancer cells; [11]) was 11.9 µM and 15 µM and 16.3 µM, the “Relative potency … Ratio + anion:no anion” value (MCF10A non-cancer cells) was 0.09 and the IC50 (A549; [4]) was 0.501 µM. For the same molecule, the IC50 (A549; read-out: Mean IC50 values) was 0.501 µM, the IC50 (A549; [5]) was 0.234 µM and 0.734 µM and 0.617 µM and 0.417 µM and the “Selectivity index (ARPE19)” value (A549) was 261.42. For the same molecule, the “Selectivity index (MCF10A)” value (A549) was 28.79, the “Relative potency … Ratio + anion:no anion” value (A549) was 1.24 and the “Selectivity indices relative to ARPE-19, Ratio + anion:no anion” value (A549) was 0.670. For the same molecule, the “Selectivity indices relative to MCF10A, Ratio + anion:no anion” value (A549) was 0.072, the IC50 (DLD-1; [4]) was 0.19 µM and the IC50 (DLD-1; read-out: Mean IC50 values) was 0.19 µM. The IC50 (DLD-1; [5]) was 0.203 µM and 0.09 µM and 0.18 µM and 0.219 µM and 0.259 µM, the “Selectivity index (ARPE19)” value (DLD-1) was 689.32 and the “Selectivity index (MCF10A)” value (DLD-1) was 75.91. The “Relative potency … Ratio + anion:no anion” value (DLD-1) was 1.12, the “Selectivity indices relative to ARPE-19, Ratio + anion:no anion” value (DLD-1) was 0.745 and the “Selectivity indices relative to MCF10A, Ratio + anion:no anion” value (DLD-1) was 0.080.
